In patent US20170066801A1, “ALPHA3BETA HYDROGEN BOND SURROGATE MACROCYCLES AS MODULATORS OF RAS” (NEW YORK UNIVERSITY, priority 2014, published 2017):
“Also recorded” adds a separate entry of the source. Where two headings read alike, the source gives them in different places. Non-standard residues stand in square brackets, D forms with d. Residues, ends and D or L forms follow the SMILES beside them. β3hI = CC[C@H](C)[C@H](N)CC(=O)O; β3hE = N[C@@H](CCC(=O)O)CC(=O)O; β3hA = C[C@H](N)CC(=O)O

What was measured:
HRas^(1-166) = molecular target: T1, HRas^(1-166) (Homo sapiens, UniProt P01112); assay: In vitro pulldown binding assay with 6×His-tagged HRas 1-166 and fluorescein-tagged SOS peptides
T1 construct: 6×His-tagged HRas WT 1-166; made in house
Description: Recombinantly purified 6×His-tagged HRas WT 1-166 was incubated with Ni-NTA sepharose beads, generating recombinant Ras on solid support. FITC labeled HBS peptides were incubated in the presence of recombinant HRas-6×His/Ni-NTA Sepharose complex at 4° C. for 1 hour. Beads complexes were pelleted and washed 5× with protein buffer (20 mM Tris-HCl pH 7.6, 50 mM NaCl, 4 mM EDTA, 10 mM MgCl2), resuspended in reducing buffer (126 mM Tris-HCL pH 6.8, 20% glycerol, 4% SDS, 0.02% bromophenol blue, 2.5% β-mercaptoethanol), boiled for 10 minutes at 95° C., and subjected to SDS-PAGE with an acrylamide percentage of 20% to allow for sufficient resolution of the HBS helices. SDS-PAGE gels were imaged using an ImageQuant™ LAS 4000 biomolecular imager (GE Healthcare, Piscataway, N.J., USA). Quantification of fluorescence by FITC-HBS helices in gel was determined by manufacturer provided ImageQuant™ TL software. Raw values were normalized to total input and plotted on a semilog graph with GraphPad Prism version 6.00 for OSX (GraphPad Software, La Jolla Calif. USA, www.graphpad.com).
The binding affinity of the designed compounds for Ras was determined using in vitro pulldown assays with recombinantly purified 6×His-tagged HRas^(1-166) and fluorescein-tagged SOS peptides (FIGS. 8 and 9, and Table 2). […] Although, the exact binding mode of the peptides and the conformational state of Ras is not known, the enhanced affinity of the α3β-HBSSOS compound likely reflects a combination of both the higher conformational stability of the HBS α3β construct and the exact Ras conformation it can access. […] Because, the SOS analogs can bind nucleotide-free and bound Ras, we hypothesize that the compounds are accessing an intermediate switch conformation.

J82 = type: cell-based, human; conditions: read-out: EC50 for cell viability
Description: (§1) Various indicated cell lines were plated at low density (˜500-1000 cells per well) in a 96-well format. 12 hours post-plating, media was supplemented with either PBS vehicle, or indicated dosage, and cells were allowed to grow for ˜5.5 days. Cells were subsequently fixed for 1 hour with a 3.7% formaldehyde solution in PBS, and stained with Syto-60 nucleic acid stain (MANUFACTURER) in solution (1:2000 Syto-60, 0.5% Triton X-100, 100 ug/mL RNAse-A, in PBS). Syto-60 stained cells were subjected to quantitative imaging in 96-well plates (Odyssey® Imager, LI-COR Biosciences; excitation: 652; emission: 678) with a 3.0 mm z-axis offset to the scan-head to get the cellular nuclei in the optimal focal plane for quantification. Absolute fluorescence intensity was normalized to the vehicle control for each respective cell line at each dose. Normalized values were visualized on a semilog plot, and data was subjected to non-linear sigmoidal dose-response to determine half-maximal effective concentration (EC50) using GraphPad Prism version 6.00 for OSX, (GraphPad Software, La Jolla Calif. USA, www.graphpad.com).
(§2) To investigate the functional consequence of inhibiting Ras activation in the context of oncogenic mutations, we examined the effect of α3β-HBSSOS on the growth and viability of cancer cells of different origins. We selected a panel of six human cancer cell lines derived from the pancreas, colon, and bladder, which harbor a variety of oncogenic proteins including mutant KRas (Table 3).
(§3) α3β-HBSSOS reduces cell viability in a dose dependent manner, with the effect spanning over four orders of magnitude. We divided the cell lines into two groups with respect to EC50 values (Table 3). […] We hypothesized that differential cellular uptake may account for the different potency of the peptides between the oncogenic and wild type RTK-Ras cell lines.

HCT116 = type: cell-based, human; conditions: read-out: EC50 for cell viability
Description: as §1, §2, §3

CaCo2 = type: cell-based, human; conditions: CaCo2, Ras WT; read-out: EC50 for cell viability
Description: as §1, §2, §3

Mia PaCa2 = type: cell-based, human; conditions: read-out: EC50 for cell viability
Description: as §1, §2, §3

BxPc3 = type: cell-based, human; conditions: BxPc3, Ras WT; read-out: EC50 for cell viability
Description: as §1, §2, §3

SW780 = type: cell-based, human; conditions: SW780, Ras WT; read-out: EC50 for cell viability
Description: as §1, §2, §3

mutant Ras cells = assay: Phosphorylated H2AX and cleaved caspace-3 immunofluorescence; type: cell-based; conditions: only mutant Ras cells
From the text: We next sought to gain mechanistic insight into the attenuated growth and viability of cancer cells that is observed upon inhibition of Sos-mediated Ras activation with α3β-HBSSOS. Because of the link between Ras signaling and cell cycle progression, we reasoned that DNA content analysis would elucidate Ras-mediated effects on cell growth. […] This cellular response to pharmacological inhibition of Ras activation by α3β-HBSSOS phenocopies the effects of the post-transcriptional silencing of wild type Ras and Sos in oncogenic Ras-driven cancer. These corroborant genetic and pharmacological cell viability defects support the therapeutic strategy of targeting wild type Ras activation.

[1] = system: mutant Ras and wild type Ras cancer cell lines; assay: Analysis of DNA content by FACS (cell cycle); type: cell-based
Description: DNA content was determined by flow cytometric analysis using TO-PRO®-3 Iodide (Life Technologies Corp., Grand Island, N.Y.) to stain nucleic acids. Cell lines were plated at ˜40-50% confluency in multi-well format and 12-hours post plating were treated with either HBS helices or vehicle control at the indicated dose. After the indicated incubation period the culture media was collected, and the cells were trypsinized, pooled with the media, pelleted in a clinical centrifuge, resuspended in a small volume of PBS, and added dropwise to 100% ice-cold ethanol while vortexing at low speed, resulting in a final concentration of ˜70% ethanol. Cells were fixed in this solution on ice for 24 hours. Subsequently cells were pelleted at 4° C., washed once with a solution of 1% BSA in PBS, and resuspended in a solution of 1% BSA, 0.5% Triton X-100, 1:5000 TO-PRO®-3 Iodide (Life Technologies Corp., Grand Island, N.Y.). Results and Discussion of Examples 1-9
We next sought to gain mechanistic insight into the attenuated growth and viability of cancer cells that is observed upon inhibition of Sos-mediated Ras activation with α3β-HBSSOS. Because of the link between Ras signaling and cell cycle progression, we reasoned that DNA content analysis would elucidate Ras-mediated effects on cell growth. […]

wild type HRas = molecular target: T2, wild type HRas (Homo sapiens, UniProt P01112); assay: RBD-pulldown of GTP-loaded Ras in MIA PaCa-2 cells; type: cell-based; conditions: 48 hours
T2 construct: levels of GTP-loaded endogenous HRas, KRas, and NRas proteins; endogenous in cells; host or cells: MIA PaCa-2
Description: (§4) To determine the effect of α3β-HBSSOS on Sos-mediated Ras activation in cells we treated MIA PaCa-2 cells, which harbor oncogenic KRas, with α3β-HBSSOS, control peptides, or vehicle control for 48 hours. Utilizing the RBD-pulldown assay we determined the levels of GTP-loaded endogenous HRas, KRas, and NRas proteins. As expected, MIA PaCa-2 cells display GTP-loading of all isoforms at steady state when treated with the vehicle control (FIGS. 11A-B).

wild type NRas = molecular target: T3, wild type NRas (Homo sapiens, UniProt P01111); assay: RBD-pulldown of GTP-loaded Ras in MIA PaCa-2 cells; type: cell-based; conditions: 48 hours
T3 construct: levels of GTP-loaded endogenous HRas, KRas, and NRas proteins; endogenous in cells; host or cells: MIA PaCa-2
T3 sequence (P01111 whole entry): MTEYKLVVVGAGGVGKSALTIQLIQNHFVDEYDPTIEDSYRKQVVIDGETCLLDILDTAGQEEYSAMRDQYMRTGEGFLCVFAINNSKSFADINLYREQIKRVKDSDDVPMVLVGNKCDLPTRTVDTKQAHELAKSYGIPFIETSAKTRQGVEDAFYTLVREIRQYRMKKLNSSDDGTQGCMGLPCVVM
Description: as §4

oncogenic KRas = molecular target: T4, oncogenic KRas (Homo sapiens, UniProt P01116, G12C); assay: RBD-pulldown of GTP-loaded Ras in MIA PaCa-2 cells; type: cell-based; conditions: 48 hours
T4 construct: levels of GTP-loaded endogenous HRas, KRas, and NRas proteins; endogenous in cells; host or cells: MIA PaCa-2
T4 sequence (P01116 whole entry G12C): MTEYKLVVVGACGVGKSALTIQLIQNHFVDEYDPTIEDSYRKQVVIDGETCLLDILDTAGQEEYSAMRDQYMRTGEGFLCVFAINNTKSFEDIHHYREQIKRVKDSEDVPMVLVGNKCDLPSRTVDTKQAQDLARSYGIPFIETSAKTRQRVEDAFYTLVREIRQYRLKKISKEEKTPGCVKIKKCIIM
Description: as §4

[2] = system: panel of six human cancer cell lines; assay: Growth and viability of a panel of six human cancer cell lines; type: cell-based; conditions: for effect on cell growth relative to vehicle control: single administration of 5 μM, six days
Description: as §1, §2, §3

[3] = molecular target: Sos-mediated Ras nucleotide exchange (Homo sapiens, UniProt P01112); assay: In vitro nucleotide exchange (mant-GDP, SOS-Cat); type: biochemical
Description: Exchange assays were performed by incubating 1 μM of recombinant wild type Ras protein with 1 μM mant-GDP in exchange buffer (20 mM Tris-HCl pH 7.6, 50 mM NaCl, 4 mM EDTA) for 5 minutes on ice. The mixture was then supplemented with 10 mM MgCl2 and incubated for an additional 6 hours at 4° C. Exchange reaction was initiated by either the addition of 100 μM-unlabeled GDP, (negative control) or the addition of 100 μM-unlabeled GDP in the presence of 1 μM SOS-Cat. The levels of fluorescence anisotropy were measured on a Perkin Elmer fluorescence spectrometer (model LS50B) with an excitation wavelength of 370 nm and emission detection at 430 nm. To test the inhibitory properties of the HBSSOS helices, indicated peptides were added to the mant-loaded Ras at a concentration of 1 uM and allowed to stand for 10 minutes at 4° C. before the addition of SosCat. Dissociation rates (Koff values) were determined by fitting raw data to a first-order exponential decay function using GraphPad Prism version 6.00 for OSX (GraphPad Software, La Jolla Calif. USA, www.graphpad.com). Data was normalized to t=0, converted to a percentage, and plotted as a curve for ease of visualization.
We evaluated inhibition of nucleotide exchange under stringent conditions consisting of 1 μM each of Ras, SOS, and the inhibitor.

## CC[C@H](C)[C@@H](CC(=O)N[C@@H](Cc1ccc(O)cc1)C(=O)N[C@@H](CCCNC(=N)N)C(=O)N[C@@H](CC(C)C)C(=O)N[C@@H](CCC(=O)O)CC(=O)N[C@@H](CC(C)C)C(=O)N[C@@H](CC(C)C)C(=O)N[C@@H](CCCCN)C(=O)N[C@@H](C)CC(=O)N[C@@H](CCC(=O)O)C(=O)N[C@@H](CCC(=O)O)C(=O)N[C@@H](C)C(=O)N[C@@H](CC(N)=O)C(N)=O)NC(=O)CN1CC=CCCCC(=O)N[C@@H](Cc2ccccc2)C(=O)N[C@@H](CCC(=O)O)C1=O [α3β-HBSSOS, ZFEG*iYRLeLLKaEEAN-NH2]
HRas^(1-166)
  fold greater affinity than the all-α analog α-HBSSOS: 50 fold
HRas^(1-166); fluorescein-tagged peptides, 4° C., 1 hour
  Kd: 220 ± 56 nM
J82; J82, Ras WT, FGFR3 CA
  EC50: 65.2 nM
J82; J82
  EC50: 65.2 ± 43 nM
HCT116; HCT116, Kras G13C
  EC50: 243 nM
HCT116; HCT-116
  EC50: 243 ± 44 nM
CaCo2
  EC50: 2670 nM
Mia PaCa2; MIA PaCa-2
  EC50: 144 ± 57 nM
Mia PaCa2; Mia PaCa2, Kras G12D
  EC50: 144 nM
BxPc3
  EC50: 1180 nM
SW780
  EC50: 1450 nM
Mutant Ras cells
  DNA strand breaks and apoptosis: increased levels
[1]; mutant Ras cells (MIA PaCa-2, HCT-116, Umuc3, T24), 48 hours
  cells with 4N DNA content: accumulation
[1]; wild type Ras cell lines (SW780, BxPc3, J82)
  accumulation in the G2/M phase of the cell cycle: do not accumulate
Wild type HRas
  GTP-loading of wild type HRas: completely abrogated
Wild type NRas
  GTP-loading of wild type NRas: completely abrogated
Oncogenic KRas
  GTP-loading of oncogenic KRas: diminished; also recorded: significantly reduced
[2]; CaCo2, SW780, and BxPc3
  effect on viability of the wild-type Ras group: limited effects on viability
[2]
  effect on cell growth relative to vehicle control: inhibited the growth of all cell lines to varying degrees
[3]; 1 μM each of Ras, SOS, and the inhibitor
  inhibition of Sos-mediated Ras nucleotide exchange: potent inhibitory effect
[3]; relative to α-HBSSOS concentration
  concentration giving inhibitory effect comparable to previously reported α-HBSSOS: one-twentieth

## CC[C@H](C)[C@@H](CC(=O)N[C@@H](Cc1ccc(O)cc1)C(=O)N[C@@H](CCCNC(=N)N)C(=O)N[C@@H](CC(C)C)C(=O)N[C@@H](CCC(=O)O)CC(=O)N[C@@H](CC(C)C)C(=O)N[C@@H](CC(C)C)C(=O)N[C@@H](CCCCN)C(=O)N[C@@H](C)CC(=O)N[C@@H](CCC(=O)O)C(=O)N[C@@H](CCC(=O)O)C(=O)N[C@@H](C)C(=O)N[C@@H](CC(N)=O)C(N)=O)NC(=O)CNC(=O)[C@H](CCC(=O)O)NC(=O)[C@H](Cc1ccccc1)NC(C)=O [α3β-UNCSOS, Ac-FEGiYRLeLLKaEEAN-NH2] (Ac-FEG[β3hI]YRL[β3hE]LLK[β3hA]EEAN-NH2)
HRas^(1-166)
  fold weaker affinity than constrained counterpart α3β-HBSSOS: ~136 fold
Wild type HRas
  GTP-loading of wild type HRas: not
Wild type NRas
  GTP-loading of wild type NRas: not
[2]
  effect on cell growth relative to vehicle control: no effect on cell growth
